Read-outs that look alike come from different tables or passages of the source.
Key:
Gal-3 = biological target: T1, Gal-3 (Homo sapiens, UniProt P17931); assay: competitive fluorescence polarisation assay, Gal-3; format: binding; parameters: key to Kd (Galectin-3): n. s.: n.s. = non-soluble at tested concentration; n. b.: n.b. = non-binding up to the highest tested concentration of 1500 µM; settings: for Kd (Galectin-3) / Kd: competitive FP; for Gal-3 selectivity ratio Kd (Gal-3)/Kd (Gal-8N): ratio of FP Kd values
T1 construct: made in house
Protocol: (§1) Human galectins-1, -3, and -8N were expressed and purified as described previously[8],[23],[24]. Competitive fluorescence polarization assays were performed with a PHERAstar FS plate reader with software PHERAstar Mars version 2.10 R3 (BMG, Offenburg, Germany) and Tecan Spark multimode microplate reader (Tecan Trading AG, Switzerland), where a fluorescence anisotropy of fluorescent-tagged probes was measured by excitation at 485 nm and emission at 520 nm. Experiments were performed at 20 °C with Gal-1 at 0.5 µM, Gal-3 at 0.2 µM, and Gal-8N at 0.4 µM. Fluorescent probes used for experiments were 3,3′-dideoxy-3-[4-(fluorescein-5-yl-carbonylaminomethyl)-1H-1,2,3-triazol-1-yl]-3′-(3,5-di-methoxybenzamido)-1,1′-sulfanediyl-di-β-D-galactopyranoside at 0.02 µM for Gal-1 and -3 and 2-(fluorescein-5-yl-carbonylamino)ethyl β-D-galactopyranosyl(1-4)-2-acetamido-2-deoxy-β-D-glucopyranosyl(1–3)-β-D-galactopyranosyl(1–4)-β-D-glucopyranoside at 0.1 µM for Gal-8N in each well. Compounds were first dissolved in pure DMSO at 20 mM concentration and later diluted in 5% DMSO in PBS solution to 5-7 different concentrations. Each concentration was tested in duplicate. The highest inhibitor concentrations tested were 1.5 mM. The average values of Kd and SEM (standard error mean) were calculated from 4 to 8 duplicate measurements, showing 10–90% inhibition.

[1] = biological target: T2, Gal-8N (galectin-8 N-terminal domain) (Homo sapiens, UniProt O00214); assay: competitive fluorescence polarisation assay, Gal-8N; format: binding; parameters: key to Kd (Galectin-8N): n. s.: n.s. = non-soluble at tested concentration; n. b.: n.b. = non-binding up to the highest tested concentration of 1500 µM; settings: competitive FP
T2 construct: made in house
T2 sequence (O00214 19-152 limits assumed): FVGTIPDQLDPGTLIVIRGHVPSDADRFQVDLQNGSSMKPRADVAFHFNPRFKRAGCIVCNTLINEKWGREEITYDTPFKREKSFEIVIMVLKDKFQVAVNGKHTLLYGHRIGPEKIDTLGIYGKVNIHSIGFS
Protocol: as §1

Gal-8C = biological target: T3, Gal-8C (Homo sapiens, UniProt O00214); assay: competitive fluorescence polarisation assay, Gal-8C; format: binding; settings: for Kd: competitive FP, mean ± SEM of n = 4 to 8; for Gal-8C selectivity ratio Kd (Gal-8C)/Kd (Gal-8N): ratio of FP Kd values
T3 construct: than to the C-terminal domain (Gal-8C)
T3 sequence (O00214 187-317 limits assumed): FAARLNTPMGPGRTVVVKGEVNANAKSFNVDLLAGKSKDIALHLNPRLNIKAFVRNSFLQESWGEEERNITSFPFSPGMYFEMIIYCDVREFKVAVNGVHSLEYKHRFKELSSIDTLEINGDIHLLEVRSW

Gal-1 = biological target: T4, Gal-1 (Homo sapiens, UniProt P09382); assay: competitive fluorescence polarisation assay, Gal-1; format: binding; settings: for Kd: competitive FP, mean ± SEM of n = 4 to 8, 20 °C; for Gal-1 selectivity ratio Kd (Gal-1)/Kd (Gal-8N): ratio of FP Kd values
T4 construct: made in house
Protocol: as §1

Gal-8N = biological target: T5, Gal-8N (Homo sapiens, UniProt O00214); assay: ligand efficiency (LE) and ligand-lipophilicity efficiency (LLE) calculations; settings: for LLE: from Gal-8N Kd and clogP; for LE: from Gal-8N Kd and number of non-hydrogen atoms
T5 construct: consisting of residues 4-158 was produced by Lund Protein Production Platform; made in house; host or cells: E. coli TUNER(DE3)
T5 sequence (O00214 4-158): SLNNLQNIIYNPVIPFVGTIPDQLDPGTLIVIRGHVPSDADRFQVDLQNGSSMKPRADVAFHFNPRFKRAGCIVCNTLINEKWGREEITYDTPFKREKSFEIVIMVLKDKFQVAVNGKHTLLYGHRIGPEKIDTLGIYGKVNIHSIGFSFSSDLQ

[2] = ester compounds, highest tested concentration 1500 µM
[3] = ester compounds, highest tested concentration 1500 µM, read-out: Kd (Galectin-3)
[4] = ester compounds, highest tested concentration 1500 µM, read-out: Kd (Galectin-8N)
[5] = mean ± SEM of n = 4 to 8, 20 °C, read-out: Kd Gal-3
[6] = mean ± SEM of n = 4 to 8, 20 °C, read-out: Kd Gal-8N

T1 sequence (P17931 whole entry): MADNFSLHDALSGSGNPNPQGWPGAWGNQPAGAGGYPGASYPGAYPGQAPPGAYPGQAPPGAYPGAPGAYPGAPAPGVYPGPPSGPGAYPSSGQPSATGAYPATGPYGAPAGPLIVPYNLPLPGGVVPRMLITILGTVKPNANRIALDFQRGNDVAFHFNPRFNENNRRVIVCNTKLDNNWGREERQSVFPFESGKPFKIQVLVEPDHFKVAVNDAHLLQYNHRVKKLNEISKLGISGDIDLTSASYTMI
T4 sequence (P09382 whole entry): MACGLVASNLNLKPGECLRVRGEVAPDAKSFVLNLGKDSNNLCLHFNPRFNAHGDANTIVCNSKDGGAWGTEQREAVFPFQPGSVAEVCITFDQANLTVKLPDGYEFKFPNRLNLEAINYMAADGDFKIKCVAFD

| SMILES | Kd (Galectin-3) (Gal-3; [2]) | Kd (Galectin-8N) [1, 2] | Kd (Gal-3; [3]) | Kd [1, 4] | Kd (Gal-3; [5]) | Gal-3 selectivity ratio Kd (Gal-3)/Kd (Gal-8N) (Gal-3) | Kd (Gal-8C) | Gal-8C selectivity ratio Kd (Gal-8C)/Kd (Gal-8N) (Gal-8C) | Kd (Gal-1) | Gal-1 selectivity ratio Kd (Gal-1)/Kd (Gal-8N) (Gal-1) | Kd [1, 6] | LLE (Gal-8N) | LE (Gal-8N) |
| --- | --- | --- | --- | --- | --- | --- | --- | --- | --- | --- | --- | --- | --- |
| Cn1c(CO[C@H]2[C@@H](O)[C@@H](CO)O[C@H](Sc3ccc(Cl)c(Cl)c3)[C@@H]2OCc2ccccc2)nc2ccc(C(=O)O)cc21 [Compound 8a] |  |  |  |  | 3.7 ± 0.5 µM | 2.5 | 320 ± 12 µM | 213 | 14 ± 0.82 µM | 9.4 | 1.5 ± 0.13 µM | 0.382 | 0.195 (kcal/mol)/heavy atom |
| Cc1cccc(CO[C@@H]2[C@@H](OCc3nc4ccc(C(=O)O)cc4n3C)[C@@H](O)[C@@H](CO)O[C@@H]2Sc2ccc(Cl)c(Cl)c2)c1 [Compound 8b] |  |  |  |  | 8.2 ± 0.7 µM | 3.9 | 303 ± 19 µM | 144 | 19 ± 0.67 µM | 9 | 2.1 ± 0.1 µM | -0.257 | 0.185 (kcal/mol)/heavy atom |
| Cc1ccc(CO[C@@H]2[C@@H](OCc3nc4ccc(C(=O)O)cc4n3C)[C@@H](O)[C@@H](CO)O[C@@H]2Sc2ccc(Cl)c(Cl)c2)cc1 [Compound 8c] |  |  |  |  | 5.9 ± 0.6 µM | 2.8 | 256 ± 24 µM | 122 | 16 ± 0.75 µM | 7.6 | 2.1 ± 0.15 µM | -0.259 | 0.185 (kcal/mol)/heavy atom |
| Cn1c(CO[C@H]2[C@@H](O)[C@@H](CO)O[C@H](Sc3ccc(Cl)c(Cl)c3)[C@@H]2OCc2ccc(F)cc2)nc2ccc(C(=O)O)cc21 [Compound 8d] |  |  |  |  | 4.2 ± 0.6 µM | 2.6 | 301 ± 28 µM | 188 | 14 ± 1.2 µM | 8.8 | 1.6 ± 0.06 µM | 0.203 | 0.189 (kcal/mol)/heavy atom |
| Cn1c(CO[C@H]2[C@@H](O)[C@@H](CO)O[C@H](Sc3ccc(Cl)c(Cl)c3)[C@@H]2OCc2ccc(Cl)c(Cl)c2)nc2ccc(C(=O)O)cc21 [Compound 8e] |  |  |  |  | 12 ± 3 µM | 2.8 | 577 ± 4 µM | 134 | 20 ± 0.84 µM | 4.7 | 4.3 ± 0.4 µM | -1.38 | 0.171 (kcal/mol)/heavy atom |
| Cn1c(CO[C@H]2[C@@H](O)[C@@H](CO)O[C@H](Sc3ccc(Cl)c(Cl)c3)[C@@H]2OCc2cccc(Cl)c2)nc2ccc(C(=O)O)cc21 [Compound 8f] |  |  |  |  | 5.8 ± 0.7 µM | 3.2 | 225 ± 37 µM | 125 | 15 ± 1.3 µM | 8.3 | 1.8 ± 0.18 µM | -0.422 | 0.187 (kcal/mol)/heavy atom |
| COC(=O)c1ccccc1-n1cc(CO[C@@H]2[C@@H](OCc3nc4ccc(C(=O)O)cc4n3C)[C@@H](O)[C@@H](CO)O[C@@H]2Sc2ccc(Cl)c(Cl)c2)nn1 [Compound 15a] |  |  |  |  | 4.7 ± 1 µM | 1.3 | 355 ± 57 µM | 101 | 69 ± 9.5 µM | 19.7 | 3.5 ± 0.37 µM | 0.182 | 0.149 (kcal/mol)/heavy atom |
| COC(=O)c1cccc(-n2cc(CO[C@@H]3[C@@H](OCc4nc5ccc(C(=O)O)cc5n4C)[C@@H](O)[C@@H](CO)O[C@@H]3Sc3ccc(Cl)c(Cl)c3)nn2)c1 [Compound 15b] |  |  |  |  | 22 ± 5.5 µM | 4.9 | 568 ± 23 µM | 126 | 104 ± 7.4 µM | 23 | 4.5 ± 0.24 µM | 0.0722 | 0.146 (kcal/mol)/heavy atom |
| COC(=O)c1ccc(-n2cc(CO[C@@H]3[C@@H](OCc4nc5ccc(C(=O)O)cc5n4C)[C@@H](O)[C@@H](CO)O[C@@H]3Sc3ccc(Cl)c(Cl)c3)nn2)cc1 [Compound 15c] |  |  |  |  | 23 ± 4.9 µM | 5.6 | 350 ± 60 µM | 85 | 99 ± 3.1 µM | 24 | 4.1 ± 0.33 µM | 0.109 | 0.147 (kcal/mol)/heavy atom |
| COC(=O)c1ccc2nc(CO[C@H]3[C@@H](O)[C@@H](CO)O[C@H](Sc4ccc(Cl)c(Cl)c4)[C@@H]3OCC3CCC3)n(C)c2c1 [Compound 24] | n. s. | n. s. |  |  |  |  |  |  |  |  |  |  |  |

Results, then the compound that gave them:

| Kd (Galectin-3) (Gal-3; [2]) | Kd (Galectin-8N) [1, 2] | Kd (Gal-3; [3]) | Kd [1, 4] | Kd (Gal-3; [5]) | Gal-3 selectivity ratio Kd (Gal-3)/Kd (Gal-8N) (Gal-3) | Kd (Gal-8C) | Gal-8C selectivity ratio Kd (Gal-8C)/Kd (Gal-8N) (Gal-8C) | Kd (Gal-1) | Gal-1 selectivity ratio Kd (Gal-1)/Kd (Gal-8N) (Gal-1) | Kd [1, 6] | LLE (Gal-8N) | LE (Gal-8N) | SMILES |
| --- | --- | --- | --- | --- | --- | --- | --- | --- | --- | --- | --- | --- | --- |
| n. s. | n. s. |  |  |  |  |  |  |  |  |  |  |  | COC(=O)c1ccc2nc(CO[C@H]3[C@@H](O)[C@@H](CO)O[C@H](Sc4ccc(Cl)c(Cl)c4)[C@@H]3OCc3ccccc3)n(C)c2c1 [Compound 7a] |
| n. s. | n. s. |  |  |  |  |  |  |  |  |  |  |  | COC(=O)c1ccc2nc(CO[C@H]3[C@@H](O)[C@@H](CO)O[C@H](Sc4ccc(Cl)c(Cl)c4)[C@@H]3OCc3cccc(C)c3)n(C)c2c1 [Compound 7b] |
| n. s. | n. s. |  |  |  |  |  |  |  |  |  |  |  | COC(=O)c1ccc2nc(CO[C@H]3[C@@H](O)[C@@H](CO)O[C@H](Sc4ccc(Cl)c(Cl)c4)[C@@H]3OCc3ccc(C)cc3)n(C)c2c1 [Compound 7c] |
| n. s. | n. s. |  |  |  |  |  |  |  |  |  |  |  | COC(=O)c1ccc2nc(CO[C@H]3[C@@H](O)[C@@H](CO)O[C@H](Sc4ccc(Cl)c(Cl)c4)[C@@H]3OCc3ccc(F)cc3)n(C)c2c1 [Compound 7d] |
|  |  | > 1500 µM | > 1500 µM |  |  |  |  |  |  |  |  |  | COC(=O)c1ccc2nc(CO[C@H]3[C@@H](O)[C@@H](CO)O[C@H](Sc4ccc(Cl)c(Cl)c4)[C@@H]3OCc3ccc(Cl)c(Cl)c3)n(C)c2c1 [Compound 7e] |
|  |  | > 1500 µM | > 1500 µM |  |  |  |  |  |  |  |  |  | COC(=O)c1ccc2nc(CO[C@H]3[C@@H](O)[C@@H](CO)O[C@H](Sc4ccc(Cl)c(Cl)c4)[C@@H]3OCc3cccc(Cl)c3)n(C)c2c1 [Compound 7f] |
| n. s. |  |  | 275 ± 5 µM |  |  |  |  |  |  |  |  |  | C#CCO[C@@H]1[C@@H](OCc2nc3ccc(C(=O)OC)cc3n2C)[C@@H](O)[C@@H](CO)O[C@@H]1Sc1ccc(Cl)c(Cl)c1 [Compound 10] |
| n. s. | n. s. |  |  |  |  |  |  |  |  |  |  |  | COC(=O)c1ccc2nc(CO[C@H]3[C@@H](O)[C@@H](CO)O[C@H](Sc4ccc(Cl)c(Cl)c4)[C@@H]3OCC3CCCCC3)n(C)c2c1 [Compound 18] |
| n. s. |  |  | > 1500 µM |  |  |  |  |  |  |  |  |  | COC(=O)c1ccc2nc(CO[C@H]3[C@@H](O)[C@@H](CO)O[C@H](Sc4ccc(Cl)c(Cl)c4)[C@@H]3OCC3CC3)n(C)c2c1 [Compound 21] |
| n. s. |  |  | 201.7 ± 1.3 µM |  |  |  |  |  |  |  |  |  | COC(=O)c1ccc2nc(CO[C@H]3[C@@H](O)[C@@H](CO)O[C@H](Sc4ccc(Cl)c(Cl)c4)[C@@H]3OCC(=O)OC(C)(C)C)n(C)c2c1 [Compound 27] |
|  |  | 8.5 ± 1.5 µM | 7.7 ± 0.3 µM |  |  |  |  | 44.7 ± 4.9 µM |  |  |  |  | COC(=O)c1ccc2nc(CO[C@H]3[C@@H](O)[C@@H](CO)O[C@H](Sc4ccc(Cl)c(Cl)c4)[C@@H]3OCC(=O)O)n(C)c2c1 [Compound 28] |
|  | n. s. | 109 ± 31 µM |  |  |  |  |  |  |  |  |  |  | COC(=O)c1ccc2nc(CO[C@H]3[C@@H](O)[C@@H](CO)O[C@H](Sc4ccc(Cl)c(Cl)c4)[C@@H]3OC)n(C)c2c1 [Compound 31] |
